According to US10822366B2, “Lincosamide derivatives, preparation and use thereof as antimicrobial agent” (MIKROBIOLOGICKY USTAV AV CR, V. V. I., priority 2017, dated 2020):
≈ marks a conversion by molar mass, not a printed value.

Columns and labels:
Kocuria rhizophila = experiment: Disc diffusion test (antibacterial activity); assay type: cell-based; conditions: paper discs (diameter 5 mm) saturated with 5 nmol compound; LB agar covered with lincomycin sensitive test strain Kocuria rhizophila; 37° C., 20 h
Procedure: Filtration paper discs (geometric diameter 5 mm) saturated with 5 nmol of tested novel lincosamide compounds were placed on LB agar plates (tryptone 10 g, yeast extract 5 g, NaCl 10 g, supplemented with distilled water to 1000 mL, pH 7.5; agar 15 g) continuously covered with culture of the lincomycin sensitive test strain Kocuria rhizophila. The plates were incubated at 37° C. for 20 h.

K. rhizophila = experiment: Minimum inhibitory concentration determination (EUCAST method); assay type: cell-based, Kocuria rhizophila; conditions: K. rhizophila in LB medium, concentration range 25-1600 nM tested, 24 h at 37° C.
Procedure: Minimum inhibitory concentrations were determined using the previously published method (European Committee for Antimicrobial Susceptibility Testing (EUCAST), Clin Microbiol Infect (2003), 9 (8), ix-xv). 5 μL suspension (McFarland scale 0.5) of K. rhizophila bacterial culture was inoculated into 1 mL of LB medium containing test substances of the desired concentration (a concentration range of 25-1600 nM was tested). The cultures were incubated for 24 h at 37° C.

MIC (K. rhizophila; Kocuria rhizophila) [µM]	MIC (K. rhizophila) [µM]	SMILES	Disc diffusion test: size of inhibition zones (Kocuria rhizophila) [mm]
0.1 (≈ 0.0557 µg/mL)	–	CCC[C@@H]1C[C@@H](C(=O)N[C@@H]([C@H]2O[C@H](SCCOC(=O)c3ccccc3O)[C@H](O)[C@@H](O)[C@H]2O)[C@@H](C)O)N(C)C1	29
0.1 (≈ 0.0571 µg/mL)	–	CCC[C@@H]1C[C@@H](C(=O)N[C@@H]([C@H]2O[C@H](SCCOC(=O)c3ccccc3O)[C@H](O)[C@@H](O)[C@H]2O)[C@@H](C)OC)N(C)C1	28
–	1.6 (≈ 0.846 µg/mL)	CO[C@H](C)[C@@H](NC(=O)[C@@H]1CCCN1C)[C@H]1O[C@H](SCCOC(=O)c2ccccc2O)[C@H](O)[C@@H](O)[C@H]1O [Celesticetin]	19
–	0.4 (≈ 0.163 µg/mL)	CCC[C@@H]1C[C@@H](C(=O)N[C@@H]([C@H]2O[C@H](SC)[C@H](O)[C@@H](O)[C@H]2O)[C@@H](C)O)N(C)C1 [Lincomycin]	24
